Laboratory results published in patent US10793521B2, “Crystalline form II of dextral oxiracetam, preparation method therefor and use thereof” (CHONGQING RUNZE PHARMACEUTICAL COMPANY LIMITED, priority 2016, dated 2020).
Entries after “also recorded” stand apart in the source; their conditions may differ.

Tests used:
Type in all cases: physicochemical
Solubility in water = assay: Solubility in water
[1] = Dynamic vapor sorption (DVS) test with powder X-ray diffraction characterization
Description: The test parameters were given as follows: weighing: Ultra Digital Microbalance SMS Ultra Balance™; flow rate: N2, 200 sccm, System Control Software: DVS-Intrinsic control software ver. 1.0.3.1, Data Analysis Software: Isotherm (ISO) analysis suite. 22.4 mg of sample of crystalline form II of dextral oxiracetam was weighed for the test, dried at RH=0%, the mass was balanced to ensure removal of moisture adsorbed on the surface, then placed on metal sample tray, and dried at 0% RH for 2 h. The test was performed at a constant temperature of 25° C., and the relative humidity (RH %) was controlled to vary cyclically from 0% to 90% to 0% RH with a 10% gradient. The variation of the sample weight with humidity was measured, which was combined with powder X-ray diffraction characterization to observe the effect of humidity on crystalline form transformation of the sample.

[2] = Accelerated test for crystalline form stability; conditions: 40° C.±2° C., relative humidity 75%±5%
Description: The accelerated test for crystalline form stability was performed in accordance with the provisions relating to the accelerated test of active pharmaceutical ingredients under “Guidelines for the Stability Test of Active Ingredient Pharmaceutical Ingredients and Pharmaceutical Preparations” of Pharmacopoeia 2010 Appendix XIXC. The crystalline form II of dextral oxiracetam was placed in a beaker and the test was carried out in a constant temperature and humidity chamber at a temperature of 40° C.±2° C. and a relative humidity of 75%±5%.

solubility (Solubility in water): ≥ 100 mg/mL
change in crystalline form ([2]; after 2 h): no change
change in crystalline form ([2]; after 10 days): no change
change in crystalline form ([2]; after 15 days): no change
crystal transformation in accelerated stability test ([2]; between 2 h and 15 d): did not undergo crystal transformation
Compound: NC(=O)CN1C[C@H](O)CC1=O [dextral oxiracetam]
crystalline form of the sample after humidity cycle ([1]; 25° C., relative humidity cycled 0% to 90% to 0% RH with a 10% gradient): still the crystalline form II of dextral oxiracetam
crystal transformation / stability to humidity ([1]; room temperature, relative humidity of 0-95%): do not undergo crystal transformation; also recorded: no crystal transformation occurs
